According to patent publication US4703061A, “Gamma-aminobutyric acid derivatives, process for production thereof, and use thereof as medicaments” (priority 1984, dated 1987):
Structures can show the parent of a compound that is named as a salt.

How the values were obtained:
[1] = system: motor activity induced by atropine; assay: Antagonistic effect against atropine (automex method); type: in vivo, ddY-strain male mice
Experimental: (§1) In Tests 1 to 4 given below, ddY-strain male mice (body weight 20-25 g) were used, and the experiments were carried out in a semi-soundproof, constant-temperature room kept at a temperature of 23±1° C. and a humidity of 55±2%. The mice were allowed to take feed and water freely.
Test 4: Antagonistic effect against atropine (automex method)
Each of the test compounds was intraperitoneally administered to mice divided into 6-membered groups, and immediately then, atropine was subcutaneously injected into the mice in a dose of 30 mg/kg. The effect of each test compound on the enhancement of motor activity induced by atropine was examined in accordance with the automex method.

[2] = system: motor activity enhanced by methamphetamine; assay: Antagonistic effect against methamphetamine (automex method); type: in vivo, ddY-strain male mice; conditions: for Motor activity (total number of counts): 500 mg/kg i.p. + methamphetamine 3 mg/kg s.c.
Experimental: as §1
Test 2: Antagonistic effect against methamphetamine (automex method)
Mice were used in 5-membered groups. Each of the test compounds was intraperitoneally administered to the mice in a predetermined dose, and immediately then, the mice were subcutaneously injected with methamphetamine in a dose of 3 mg/kg. The action of the test compounds on motor activity enhanced by methamphetamine was examined in accordance with the automex method given above.

[3] = system: sleeping induced by pentobarbital; assay: Effect of prolonging the time of sleeping induced by pentobarbital; type: in vivo, ddY-strain male mice; conditions: pentobarbital sodium 50 mg/kg s.c.
Experimental: as §1
Test 3: Effect of prolonging the time of sleeping induced by pentobarbital
The effects of the test compounds on sleeping induced by pentobarbital were examined. The disappearance of righting reflex for 5 seconds or more was used as an index of sleeping. Mice were divided into 10-membered groups. Each of the test compounds was intraperitoneally administered to the mice in the doses indicated. Immediately then, pentobarbital sodium salt was subcutaneously injected into the mice in a dose of 50 mg/kg, and the sleeping time was compared with that of a group to which pentobarbital alone was injected (control).

[4] = system: cycloheximide-induced amnesia model; assay: Effects on CXM-induced amnesia (step-down retention test); type: in vivo, ddY-strain male mice; conditions: for Escape learning latency (mean ± S.E.) / Step-down latency (mean ± S.E.): retention test 24 hours
Experimental: The test animals used were ddY-strain male mice (body weight 30-35 g). The experiment was carried out indoors at about 20° C., and the mice were allowed to take feed and water freely. 2. Effects on memorized behaviors
A device comprised of a floor grid surrounded on four sides by acrylic glass walls each having a lateral dimension of 21 cm and a wooden platform, 4×4×4 cm in size, fixed centrally to the floor grid was placed in a wooden semi-soundproof box having a size of 21×21×40 cm with a 15W electric bulb suspended from its ceiling.
The floor grid consisted of stainless steel rods, 3 mm in diameter, arranged at intervals of 8 mm. An intermittent electric shock (1 Hz, 0.5 sec., 60 V DC) was applied to the grid by an electric impulse apparatus and an isolator.
A mouse was placed in a predetermined direction on the platform. Immediately after the mouse stepped down onto the floor grid (when the mouse's four limbs left the platform), an electric shock was applied to the floor grid, and the intermittent application of the electric shock was continued until the mouse climbed up the platform to escape from the electric shock. The time which elapsed until the mouse stepped down from the platform (SDL, step down latency) and the time which elapsed until the mouse escaped to the platform from the electric shock (ELL, escape learning latency) were measured.
By the same procedure as in the training test, a mouse was placed on the platform, and its step down latency (SDL) was measured. The cut-off time was 300 seconds.
After the mouse stepped down, or the cut-off time elapsed, the mouse was placed on the floor grid at a corner of the device with its head directed in a direction opposite to the platform. An electric shock was applied to the mouse and its escape learning latency (ELL) was measured.
Mice divided into groups each consisting of not less than 20 mice were subjected to the training test, and immediately then subcutaneously injected with CXM (150 mg/kg). Twenty-four hours later, the mice was subjected to the retention test.
Immediately after administration of CXM or application of ECS, a 0.9% normal saline solution of each of the test compounds was intraperitoneally administered to the mice. Separately, a 5% gum arabic solution of CXM was administered to the mice in a control group.

[5] = background statement; cited from earlier work
[6] = background statement; cited from earlier work; remark: listed apart in the source
[7] = 500 mg/kg i.p., CXM 150 mg/kg s.c.
[8] = 1000 mg/kg i.p., CXM 150 mg/kg s.c.

With `CN1[C@@H]2CC[C@H]1C[C@@H](OC(=O)C(CO)c1ccccc1)C2` (stereo partly drawn) [Atropine, atropine] the “Motor activity (total number of counts)” value ([1]; atropine alone, 30 mg/kg, 5 minutes) was 59 counts, the “Motor activity (total number of counts)” value ([1]; atropine alone, 30 mg/kg, 10 minutes) was 233 counts and the “Motor activity (total number of counts)” value ([1]; atropine alone, 30 mg/kg, 15 minutes) was 425 counts. For the same compound, the “Motor activity (total number of counts)” value ([1]; atropine alone, 30 mg/kg, 20 minutes) was 620 counts, the “Motor activity (total number of counts)” value ([1]; atropine alone, 30 mg/kg, 25 minutes) was 806 counts and the “Motor activity (total number of counts)” value ([1]; atropine alone, 30 mg/kg, 30 minutes) was 964 counts.

With `CC(C)(CO)C(O)C(=O)NCCCC(=O)O` (stereo not drawn) [Ca salt of hopantenic acid, Calcium 4(2,4-dihydroxy3,3-dimethyl-butylamide)butyrate, reference compound] the “Motor activity (total number of counts)” value ([2]; 5 minutes) was 26 counts, the “Motor activity (total number of counts)” value ([2]; 10 minutes) was 55 counts and the “Motor activity (total number of counts)” value ([2]; 15 minutes) was 94 counts. The “Motor activity (total number of counts)” value ([2]; 20 minutes) was 144 counts, the “Motor activity (total number of counts)” value ([2]; 25 minutes) was 273 counts and the “Motor activity (total number of counts)” value ([2]; 30 minutes) was 408 counts. The “antagonistic effect against the increase of motor activity induced by methamphetamine” value ([2]; 500 mg/kg, result in words) was “scarcely observed”, the Sleeping time ([3]; 1000 mg/kg i.p.) was 57.0 ± 6.7 min and the Sleeping time ([3]; 2000 mg/kg i.p.) was 67.0 ± 5.9 min. The “Motor activity (total number of counts)” value ([1]; 600 mg/kg i.p. + atropine 30 mg/kg s.c., 5 minutes) was 16 counts, the “Motor activity (total number of counts)” value ([1]; 600 mg/kg i.p. + atropine 30 mg/kg s.c., 10 minutes) was 16 counts and the “Motor activity (total number of counts)” value ([1]; 600 mg/kg i.p. + atropine 30 mg/kg s.c., 15 minutes) was 29 counts. The “Motor activity (total number of counts)” value ([1]; 600 mg/kg i.p. + atropine 30 mg/kg s.c., 20 minutes) was 56 counts, the “Motor activity (total number of counts)” value ([1]; 600 mg/kg i.p. + atropine 30 mg/kg s.c., 25 minutes) was 88 counts and the “Motor activity (total number of counts)” value ([1]; 600 mg/kg i.p. + atropine 30 mg/kg s.c., 30 minutes) was 151 counts. For the same compound, the “Escape learning latency (mean ± S.E.)” value [4, 7] was 10.3 ± 0.7 s, the “Step-down latency (mean ± S.E.)” value [4, 7] was 122.3 ± 13.0 s and the “Escape learning latency (mean ± S.E.)” value [4, 8] was 8.2 ± 1.0 s. For the same compound, the “Step-down latency (mean ± S.E.)” value [4, 8] was 187.7 ± 19.7 s, the “Escape learning latency (mean ± S.E.)” value ([4]; 1000 mg/kg i.p., without CXM) was 5.6 ± 0.8 s and the “Step-down latency (mean ± S.E.)” value ([4]; 1000 mg/kg i.p., without CXM) was 275.9 ± 9.7 s. For the same compound, the memory activating action ([4]; without CXM, vs control group, result in words) was “did not show memory activating action”.

In the case of `NCCCC(=O)O` [gamma-aminobutyric acid], the “transmigration through the blood brain barrier” value [5] is listed as “hardly transmigrates through the blood brain barrier” and the excretion into urine [6] is listed as “easily excreted into urine”.
